As a reminder, the Kd is the free concentration of one partner at which half of the binding sites on the other are occupied at equilibrium, for simple one-to-one binding.

Non-standard residues stand in square brackets, D forms with d. Residues, ends and D or L forms follow the SMILES beside them. *: point of attachment. Cyclohexanoyl(1S,3S-3-NH2) = N[C@H]1CCC[C@H](C(=O)*)C1; Trp(5-OH) = N[C@@H](Cc1c[nH]c2ccc(O)cc12)C(=O)O; NH(4-morpholinophenyl) = c1cc(N2CCOCC2)ccc1N*; Bip = N[C@@H](Cc1ccc(-c2ccccc2)cc1)C(=O)O; hArg = N=C(N)NCCCC[C@H](N)C(=O)O

One assay addresses EphA4-LBD (Homo sapiens, UniProt P54764, C204A). The experiment in a line: 2D [13C,1H] NMR chemical shift perturbations with 13Cε-Met labeled EphA4-LBD.
The subject of assay [1] is motor neurons co-cultured with iAstrocytes derived from sALS patients. The class given is cell-based, mouse. Conditions: 100 μM, 3 days co-culture.
Assay [2] deals with SOD1(G93A) transgenic mice. Conditions: daily in vivo administration; cited from earlier work.
Another assay relates to EphA4. Conditions: cited from earlier work.

Chain of EphA4-LBD (P54764 29-209 C204A): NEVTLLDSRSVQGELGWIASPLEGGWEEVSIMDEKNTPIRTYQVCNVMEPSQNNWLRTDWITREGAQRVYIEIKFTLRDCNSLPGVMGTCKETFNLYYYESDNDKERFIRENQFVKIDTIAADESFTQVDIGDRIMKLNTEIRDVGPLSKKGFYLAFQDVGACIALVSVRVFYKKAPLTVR

As for `N=C(N)NCCCC[C@H](NC(=O)[C@H](Cc1ccc(-c2ccccc2)cc1)NC(=O)[C@H](Cc1c[nH]c2ccc(O)cc12)NC(=O)[C@H]1CCC[C@H](N)C1)C(=O)NCC(=O)Nc1ccc(N2CCOCC2)cc1` [compound 33] ({Cyclohexanoyl(1S,3S-3-NH2)}-[Trp(5-OH)][Bip][hArg]G-{NH(4-morpholinophenyl)}), the Kd at EphA4-LBD was less than 60 nM.

As for `COc1ccc2[nH]cc(CCNC(=O)[C@H](Cc3ccncc3)NC(=O)[C@H](Cc3ccc(Cl)cc3)NC(=O)[C@H](Cc3c[nH]c4ccc(O)cc34)NC(=O)CCCN)c2c1` [123C4], the “protection of motor neurons from sALS iAstrocytes (motor neuron survival)” value in assay [1] is given as “able to protect mouse motor neurons”. In addition, the survival result in assay [2] is “significantly prolonged survival”. Further, the “agonistic activity for EphA4 in primary cortical neurons” value in the assay with EphA4 is “induced receptor phosphorylation and growth cone collapse”.

The record behind these values is publication PMC8555409 (Journal of medicinal chemistry, 2021).
